Marks after values point to notes of the source that are not given here.
Tests used:
murine B-cell tumors = assay: Retention in murine B-cell tumors (FIG. 4); assay type: in vivo; settings: compared to idelalisib (FIG. 4)
[1] = test system: patients with follicular lymphoma (FL); assay: Phase 1b study: patient disposition on continuous (CS) or intermittent (IS) schedule; assay type: in vivo, human
Procedure: (§1) Methods: Patients with ECOG ≤2, no prior PI3K therapy and progression of disease (POD) after ≥1 prior therapy were initially enrolled in a dose escalation phase (60-180 mg) then in 60 mg expansion cohorts as monotherapy or in combination with rituximab. Treatment is given in 28-day cycles and continued until POD or unacceptable toxicity. Compound A35 was given initially on a continuous daily dosing schedule. An intermittent dosing schedule on days 1-7 of a 28-day cycle was then evaluated after 2 cycles of daily dosing, or ≥3 cycles of daily dosing to reduce the risk of immune-related adverse events. For this analysis the intermittent schedule (IS) group is defined as patients who received Compound A35 alone or with rituximab daily for 2 cycles then switched to an intermittent schedule of 1 week per cycle, and the continuous schedule (CS) group is defined as patients who never switched to intermittent dosing or switched to intermittent dosing in cycle 4 or later cycles. Toxicity on CS is managed by a switch to IS. Progression of disease (POD) on IS is managed by a switch to CS.

[2] = test system: patients with follicular lymphoma (FL); assay: Phase 1b study of Compound A35 alone or with rituximab: disease response in follicular lymphoma patients; assay type: in vivo, human
Procedure: In an ongoing Phase 1b study, patients with relapsed B-cell malignancies are administered Compound A35 either as a single agent or in combination with the anti-CD20 antibody rituximab (Rituxan®). A total of 90 subjects have been enrolled in the study to date: • 31 subjects enrolled in a dose escalation cohort of Compound A35 administered as a single agent at a daily dose of 60, 120, and 180 mg; • 21 subjects enrolled in an ongoing expansion cohort of Compound A35 administered as a single agent at 60 mg/day, either on a daily continuous schedule (CS) only or on a daily dosing followed by a switch to an intermittent dosing schedule […] beginning in Cycle 3. • 38 subjects enrolled in a cohort of Compound A35 at 60 mg/day on a CS or IS dosing plus infusional rituximab at a dose of 375 mg/m^2 administered for a total of 8 doses in 6 months
Patients with FL were treated with Compound A35 either alone (N=40) or in combination with the anti-CD20 antibody rituximab (N=14). Most patients in the rituximab combination cohort received Compound A35 by intermittent schedule (IS) after 2 cycles of daily dosing of Compound A35.
as §1

[3] = Tumor exposure of Compound A35 (FIG. 3); assay type: in vivo; settings: over a 4-hour and 24-hour period (FIG. 3)
[4] = test system: patients with follicular lymphoma (FL); assay: Phase 1b study: patients with adverse events of special interest (AESI); assay type: in vivo, human
Procedure: as §1

[5] = CS Group (N = 25), Compound A35 alone arm
[6] = CS Group (N = 31), A35 alone or with rituximab
[7] = FL patients, A35 alone or with rituximab
[8] = IS Group (N = 15), Compound A35 alone arm
[9] = IS Group (N = 23), A35 alone or with rituximab
[10] = All Grades, All (N = 40), single agent therapy
[11] = All Grades, CS Group (N = 25), single agent therapy
[12] = All Grades, CS Group (N = 31), A35 alone or with rituximab
[13] = All Grades, IS Group (N = 15), single agent therapy
[14] = All Grades, IS Group (N = 23), A35 alone or with rituximab
[15] = Grade 3, CS Group (N = 31), A35 alone or with rituximab
[16] = Grade 3, IS Group (N = 23), A35 alone or with rituximab
[17] = Related Grade 3, All (N = 40), single agent therapy
[18] = Related Grade 3, CS Group (N = 25), single agent therapy
[19] = Related Grade 3, IS Group (N = 15), single agent therapy

retention in murine B-cell tumors (murine B-cell tumors): preferential retention
tumor exposure [3]: preferential tumor exposure
SMILES: CN1CCC(c2ccccc2CC(C)(C)Nc2nc(N3CCOCC3)nc(-n3c(C(F)F)nc4ccccc43)n2)CC1 [Compound A35]
Patient Disposition: Adverse event [1, 5]: 3 (12%)
Patient Disposition: Progressive disease [1, 5]: 4 (16%)
Patient Disposition: Adverse event [1, 6]: 3 (10%)
Patient Disposition: Progressive disease [1, 6]: 4 (13%)
patients discontinued: POD [1, 7]: 9 patients
patients discontinued: adverse events (AEs) [1, 7]: 4 patients
Patient Disposition: Adverse event [1, 8]: 1 (7%)
Patient Disposition: Progressive disease [1, 8]: 0%
Patient Disposition: Adverse event [1, 9]: 1 (4%)
Patient Disposition: Progressive disease [1, 9]: 0 (0%)
rate of response in POD24 patients ([2]; A35 alone or in combination with a CD20 inhibitor, higher than expected with conventional FL therapy): very high rate of response
morphologic/metabolic CR ([2]; FL patients with follow-up disease assessment, Compound A35 alone): 20%
No. (%) of Subjects with a Response ([2]; No POD24, Total (A35 alone and A35 + rituximab cohorts)): 16 (67%) No. (%)
No. (%) of Subjects with a Response ([2]; No POD24 FL subjects evaluable for response): 14 (64%) No. (%)
No. (%) of Subjects with a Response ([2]; POD24, Total (A35 alone and A35 + rituximab cohorts)): 24 (92%) No. (%)
No. (%) of Subjects with a Response ([2]; POD24 FL subjects evaluable for response): 16 (100%) No. (%)
rate of durable responses ([2]; R/R FL): high rate of durable responses
POD24 subjects with response who had PD ([2]; of 24 POD24 subjects who achieved response): 6 subjects
AESI: ALT/AST increased [4, 10]: 9 (22.5%)
AESI: Diarrhea/colitis [4, 10]: 17 (42.5%)
AESI: Mucositis [4, 10]: 6 (15.0%)
AESI: Pneumonia/ Pneumonitis [4, 10]: 2 (5.0%)
AESI: Rash, all types [4, 10]: 12 (30.0%)
AESI: ALT/AST increased [4, 11]: 6 (24.0%)
AESI: Diarrhea/colitis [4, 11]: 10 (40.0%)
AESI: Mucositis [4, 11]: 6 (24.0%)
AESI: Pneumonia/ Pneumonitis [4, 11]: 2 (8.0%)
AESI: Rash, all types [4, 11]: 11 (44.0%)
AESI: ALT/AST increased [4, 12]: 8 (25.8%)
AESI: Diarrhea/colitis [4, 12]: 11 (35.5%)
AESI: Mucositis [4, 12]: 6 (19.4%)
AESI: Pneumonia [4, 12]: 2 (6.5%)
AESI: Rash, all types [4, 12]: 11 (35.5%)
AESI: ALT/AST increased [4, 13]: 3 (20.0%)
AESI: Diarrhea/colitis [4, 13]: 7 (46.7%)
AESI: Mucositis [4, 13]: 0%
AESI: Pneumonia/ Pneumonitis [4, 13]: 0%
AESI: Rash, all types [4, 13]: 1 (6.7%)
AESI: ALT/AST increased [4, 14]: 7 (30.4%)
AESI: Mucositis [4, 14]: 1 (4.3%)
AESI: Pneumonia [4, 14]: 0%
AESI: Rash, all types [4, 14]: 2 (8.7%)
AESI: Diarrhea/colitis ([4]; All Grades, IS Group (N = 23), A35 alone or with rituximab, excluded 1 subject with diarrhea after POD and 1 with one-day diarrhea): 11 (47.8%)*
AESI: ALT/AST increased [4, 15]: 3 (9.7%)
AESI: Diarrhea/colitis [4, 15]: 5 (16.1%)
AESI: Mucositis [4, 15]: 1 (3.2%)
AESI: Pneumonia [4, 15]: 2 (6.5%)
AESI: Rash, all types [4, 15]: 4 (12.9%)
AESI: ALT/AST increased [4, 16]: 1 (4.3%)
AESI: Diarrhea/colitis [4, 16]: 2 (8.7%)
AESI: Mucositis [4, 16]: 0%
AESI: Pneumonia [4, 16]: 0%
AESI: Rash, all types [4, 16]: 0%
Grade 3 immune-related adverse events ([4]; IS group (N=23) compared to the CS group (N=31)): less common
AESI: ALT/AST increased [4, 17]: 3 (7.5%)
AESI: Diarrhea/colitis [4, 17]: 6 (15.0%)
AESI: Mucositis [4, 17]: 1 (2.5%)
AESI: Pneumonia/ Pneumonitis [4, 17]: 2 (5.0%)
AESI: Rash, all types [4, 17]: 4 (10.0%)
AESI: ALT/AST increased [4, 18]: 3 (12.0%)
AESI: Diarrhea/colitis [4, 18]: 5 (20.0%)
AESI: Mucositis [4, 18]: 1 (4.0%)
AESI: Pneumonia/ Pneumonitis [4, 18]: 2 (8.0%)
AESI: Rash, all types [4, 18]: 4 (16.0%)
AESI: ALT/AST increased [4, 19]: 0%
AESI: Diarrhea/colitis [4, 19]: 1 (6.7%)
AESI: Mucositis [4, 19]: 0%
AESI: Pneumonia/ Pneumonitis [4, 19]: 0%
AESI: Rash, all types [4, 19]: 0%
incidence of immune-related adverse events (irAEs) ([4]; intermittent schedule (IS)): appears to reduce the incidence

From US20210196725A1, “TREATMENT OF RELAPSED FOLLICULAR LYMPHOMA” (MEI Pharma, Inc., priority 2018, published 2021)
